Laboratory results reported in patent publication US9175011B2, “Morpholino substituted urea or carbamate derivatives as MTOR inhibitors” (CELLZOME LIMITED, priority 2011, dated 2015).

How the values were obtained:
PI3K gamma (PI3Kg) = target: T1, PI3K gamma (PI3Kg) (Homo sapiens, UniProt P48736); experiment: kinobeads assay, PI3K gamma; type: binding; details: Jurkat cell lysate, read-out: Inhibition values (IC50) PI3Kg
T1 construct: Jurkat cells were homogenized in a Potter S homogenizer in lysis buffer; endogenous in cells; host or cells: Jurkat, clone E6-1 (ATCC TIB-152) lysate
T1 sequence (P48736 whole entry): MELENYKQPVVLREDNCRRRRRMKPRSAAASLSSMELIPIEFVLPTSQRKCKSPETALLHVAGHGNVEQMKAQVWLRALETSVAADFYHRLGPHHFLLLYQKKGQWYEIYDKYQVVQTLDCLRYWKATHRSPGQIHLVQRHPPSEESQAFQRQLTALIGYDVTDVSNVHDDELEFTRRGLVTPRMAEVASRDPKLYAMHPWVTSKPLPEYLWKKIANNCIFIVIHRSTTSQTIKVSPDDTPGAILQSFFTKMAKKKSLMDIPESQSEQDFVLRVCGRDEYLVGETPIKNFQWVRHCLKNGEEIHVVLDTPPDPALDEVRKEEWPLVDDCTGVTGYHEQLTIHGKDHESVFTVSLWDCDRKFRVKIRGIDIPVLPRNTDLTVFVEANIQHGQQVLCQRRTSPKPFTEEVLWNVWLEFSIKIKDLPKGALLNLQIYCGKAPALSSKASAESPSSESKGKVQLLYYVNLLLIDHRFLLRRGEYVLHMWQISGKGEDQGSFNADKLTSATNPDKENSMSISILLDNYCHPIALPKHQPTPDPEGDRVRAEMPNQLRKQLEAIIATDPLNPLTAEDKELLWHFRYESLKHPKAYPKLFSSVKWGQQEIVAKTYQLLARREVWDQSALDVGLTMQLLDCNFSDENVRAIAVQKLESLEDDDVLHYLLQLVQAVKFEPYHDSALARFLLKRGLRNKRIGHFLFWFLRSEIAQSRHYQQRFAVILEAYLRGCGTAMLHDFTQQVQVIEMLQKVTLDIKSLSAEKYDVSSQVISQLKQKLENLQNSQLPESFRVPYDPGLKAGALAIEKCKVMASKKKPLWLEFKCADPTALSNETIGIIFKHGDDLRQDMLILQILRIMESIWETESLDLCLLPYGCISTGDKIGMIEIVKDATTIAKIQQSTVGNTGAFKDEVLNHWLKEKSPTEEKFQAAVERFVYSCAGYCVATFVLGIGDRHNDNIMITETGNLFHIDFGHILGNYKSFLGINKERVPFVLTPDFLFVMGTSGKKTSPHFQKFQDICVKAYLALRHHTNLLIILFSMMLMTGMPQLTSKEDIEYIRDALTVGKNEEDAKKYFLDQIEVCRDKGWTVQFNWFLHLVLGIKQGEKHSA
Protocol: (§1) The compounds of the present invention as described were tested in the mTOR kinobeads assay as described below. Briefly, test compounds (at various concentrations) and the affinity matrix (1:1 mixture of beads with immobilized phenylthiazole ligand 1 and beads with immobilized phenylmorpholin-chromen ligand; WO 2009/098021) were added to cell lysate aliquots and allowed to bind to the proteins in the lysate sample. After the incubation time the beads with captured proteins were separated from the lysate. Bound proteins were then eluted and the presence of mTOR, PI3K alpha (PI3Kα), PI3K beta (PI3Kb), PI3K gamma (PI3Kg), PI3K delta (PI3Kd) and DNA-dependent protein kinase (DNA-PK) was detected and quantified using a specific antibody in a dot blot procedure and the Odyssey infrared detection system. Dose response curves for individual kinases were generated and IC50 values calculated. Kinobeads assays for PI3 kinases (WO-A 2008/015013) and for kinase selectivity profiling (WO 2009/098021) have been previously described.
(§2) The affinity matrix (beads with immobilized phenylmorpholin-chromen ligand) was washed three times with 15 ml of 1×DP buffer containing 0.2% NP40 (IGEPAL® CA-630, Sigma, #13021) and then resuspended in 5.5 ml of 1×DP buffer containing 0.2% NP40 (10% beads slurry).
(§3) 5×DP buffer: 250 mM Tris-HCl pH 7.4, 25% Glycerol, 7.5 mM MgCl2, 750 mM NaCl, 5 mM Na3VO4, filter the 5×-lysis buffer through 0.22 μm filter and store in aliquots at −80° C. The 5×DP buffer is diluted to 1×DP buffer containing 1 mM DTT and 25 mM NaF.
(§4) Stock solutions of test compounds were prepared in DMSO. In a 96 well plate 30 μl solution of diluted test compounds at 5 mM in DMSO were prepared. Starting with this solution a 1:3 dilution series (9 steps) was prepared. For control experiments (no test compound) a buffer containing 2% DMSO was used. Compound PI-103 served as a positive control (Calbiochem catalogue number 528100).
(§5) Jurkat cells (ATCC catalogue number TIB-152 Jurkat, clone E6-1) were grown in 1 liter Spinner flasks (Integra Biosciences, #182101) in suspension in RPMI 1640 medium (Invitrogen, #21875-034) supplemented with 10% Fetal Bovine Serum (Invitrogen) at a density between 0.15×10^6 and 1.2×10^6 cells/ml. Cells were harvested by centrifugation, washed once with 1×PBS buffer (Invitrogen, #14190-094) and cell pellets were frozen in liquid nitrogen and subsequently stored at −80° C.
(§6) Jurkat cells were homogenized in a Potter S homogenizer in lysis buffer: 50 mM Tris-HCl, 0.8% NP40, 5% glycerol, 150 mM NaCl, 1.5 mM MgCl2, 25 mM NaF, 1 mM sodium vanadate, 1 mM DTT, pH 7.5. One complete EDTA-free tablet (protease inhibitor cocktail, Roche Diagnostics, 1873580) per 25 ml buffer was added. The material was dounced 10 times using a mechanized POTTER S, transferred to 50 ml falcon tubes, incubated for 30 minutes on ice and spun down for 10 min at 20,000 g at 4° C. (10,000 rpm in Sorvall SLA600, precooled). The supernatant was transferred to an ultracentrifuge (UZ)-polycarbonate tube (Beckmann, 355654) and spun for 1 hour at 100.000 g at 4° C. (33.500 rpm in Ti50.2, precooled). The supernatant was transferred again to a fresh 50 ml falcon tube, the protein concentration was determined by a Bradford assay (BioRad) and samples containing 50 mg of protein per aliquot were prepared. The samples were immediately used for experiments or frozen in liquid nitrogen and stored frozen at −80° C.
(§7) Jurkat cell lysate (approximately 50 mg protein per plate) was thawed in a water bath at room temperature and then kept on ice. To the thawed cell lysate 1×DP 0.8% NP40 buffer containing protease inhibitors (1 tablet for 25 ml buffer; EDTA-free protease inhibitor cocktail; Roche Diagnostics 1873580) was added in order to reach a final protein concentration of 5 mg/ml total protein. The diluted cell lysate was stored on ice. […]

[1] = test system: S6RP serine-240/244 phosphorylation; experiment: In vitro phospho-S6 cellular assay (HEK293T/17); type: cell-based; details: Homo sapiens; HEK293T/17 cells, 2 hours, pS6RP Ser240/244; read-out: Inhibition values (IC50) pS6
Source text: Activation of mTOR signaling results in phosphorylation of several downstream targets. In cells, mTOR exists in two different protein complexes. The mTOR Complex-1 (mTORC1) phosphorylates and activates S6 Kinase 1 (S6K1) and S6 Kinase 2 (S6K2) (also known as p70S6K) which then phosphorylate S6 Ribosomal Protein (S6RP) (also known as RPS6)3. S6RP is phosphorylated on serine 235, senile 236, serine 240 and serine 244 by both pS6K1 and pS6K2. The mTOR Complex-2 (mTORC2) phosphorylates AKT on serine 473 which activates the AKT signaling pathway.
The assay measures a test compound's inhibition of S6RP serine-240/244 phosphorylation and inhibition of Akt serine-473 phosphorylation in human embryonic kidney derived HEK293T/17 cells (ATCC CRL-11268).
The HEK293T/17 cell line is maintained in DMEM media (Invitrogen catalogue number 41965-039) supplemented with 10% FCS at 37° C. in a 5% CO2 humidified incubator. Cells are seeded in 96-well plates at 40,000 cells/well (pS6RP S240/244 assay) or 80,000 cells/well (pAkt 5473 assay) in 90 μl growth media (DMEM, 2% FCS). Plates are incubated for 1 hour in a humidified incubator to allow the cells to adhere. Cells are treated with 8 concentrations of test compounds or DMSO alone for controls (final DMSO concentration 0.1%) and incubated at 37° C. for 2 hours. Then 20 μl of 5× concentrated lysis buffer (750 mM NaCl, 100 mM Tris pH7.4, 5 mM ADTA, 5 mM EGTA, 5% Triton X-100) is added, plates are sealed and incubated for 15 minutes at 4° C. with gentle shaking After cell lysis, 25 μl cell lysate is transferred to a MesoScale plate coated with an antibody to pS6RP Ser240/244 (MesoScale Discovery K150DGD-3) or an antibody to pAkt Ser 473 (MesoScale Discovery K151DGD-3). Plates have been blocked before by incubation with 150 μl MesoScale Discovery Blocking Solution-A for 1 hour at room temperature followed by washing with 150 μl 1×Tris wash buffer per well. After the transfer of the cell lysate to the MSD plate, the pS6RP (or pAkt) protein is captured on the coated antibody by incubation at room temperature for 1 hour with gentle shaking. After the capture step the plate is washed three times with 150 μl of 1× Tris wash buffer per well. Then 25 μl detection antibody conjugated with a Sulfo-Tag is added and incubated for 1 hour at room temperature with gentle shaking. Subsequently the antibody solution is removed and the plate is washed 3 times with 150 μl 1×Tris wash buffer per well and 150 μl Read buffer is added. The plates are analysed on a MSD 2400 Plate Reader (MesoScale Discovery). Data analysis is performed using nonlinear regression for a sigmoidal dose-response with a variable slope.

PI3K beta (PI3Kb) = target: T2, PI3K beta (PI3Kb) (Homo sapiens, UniProt P42338); experiment: kinobeads assay, PI3K beta; type: binding; details: Jurkat cell lysate, read-out: Inhibition values (IC50) PI3Kb
T2 construct: Jurkat cells were homogenized in a Potter S homogenizer in lysis buffer; endogenous in cells; host or cells: Jurkat, clone E6-1 (ATCC TIB-152) lysate
T2 sequence (P42338 whole entry): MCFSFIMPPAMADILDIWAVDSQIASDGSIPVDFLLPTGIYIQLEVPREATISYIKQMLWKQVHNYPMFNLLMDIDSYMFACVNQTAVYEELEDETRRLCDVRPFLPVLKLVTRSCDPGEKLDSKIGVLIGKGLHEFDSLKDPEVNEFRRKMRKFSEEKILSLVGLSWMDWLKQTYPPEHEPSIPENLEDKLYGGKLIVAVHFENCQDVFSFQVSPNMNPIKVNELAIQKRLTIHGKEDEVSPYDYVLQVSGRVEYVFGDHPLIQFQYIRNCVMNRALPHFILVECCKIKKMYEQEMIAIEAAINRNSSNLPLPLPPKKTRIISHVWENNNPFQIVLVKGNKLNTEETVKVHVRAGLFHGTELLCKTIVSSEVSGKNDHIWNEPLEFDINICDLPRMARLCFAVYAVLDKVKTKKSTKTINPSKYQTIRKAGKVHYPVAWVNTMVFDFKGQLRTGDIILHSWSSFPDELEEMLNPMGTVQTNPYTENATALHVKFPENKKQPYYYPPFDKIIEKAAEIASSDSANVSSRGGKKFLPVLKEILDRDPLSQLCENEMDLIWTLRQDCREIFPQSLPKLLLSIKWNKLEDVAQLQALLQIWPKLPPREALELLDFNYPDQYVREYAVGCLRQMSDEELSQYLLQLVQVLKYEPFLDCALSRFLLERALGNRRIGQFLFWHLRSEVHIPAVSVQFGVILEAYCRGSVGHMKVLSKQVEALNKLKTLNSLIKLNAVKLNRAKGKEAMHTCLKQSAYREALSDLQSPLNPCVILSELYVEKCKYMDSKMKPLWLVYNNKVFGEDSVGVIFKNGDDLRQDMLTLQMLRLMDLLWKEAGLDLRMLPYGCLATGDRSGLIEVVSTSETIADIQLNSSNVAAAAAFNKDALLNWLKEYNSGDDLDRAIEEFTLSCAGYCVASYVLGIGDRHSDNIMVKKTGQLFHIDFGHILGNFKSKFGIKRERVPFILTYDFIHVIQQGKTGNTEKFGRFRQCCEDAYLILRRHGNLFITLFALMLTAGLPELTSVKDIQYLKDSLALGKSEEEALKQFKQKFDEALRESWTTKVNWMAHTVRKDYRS
T2 sequence (P27986 whole entry partner): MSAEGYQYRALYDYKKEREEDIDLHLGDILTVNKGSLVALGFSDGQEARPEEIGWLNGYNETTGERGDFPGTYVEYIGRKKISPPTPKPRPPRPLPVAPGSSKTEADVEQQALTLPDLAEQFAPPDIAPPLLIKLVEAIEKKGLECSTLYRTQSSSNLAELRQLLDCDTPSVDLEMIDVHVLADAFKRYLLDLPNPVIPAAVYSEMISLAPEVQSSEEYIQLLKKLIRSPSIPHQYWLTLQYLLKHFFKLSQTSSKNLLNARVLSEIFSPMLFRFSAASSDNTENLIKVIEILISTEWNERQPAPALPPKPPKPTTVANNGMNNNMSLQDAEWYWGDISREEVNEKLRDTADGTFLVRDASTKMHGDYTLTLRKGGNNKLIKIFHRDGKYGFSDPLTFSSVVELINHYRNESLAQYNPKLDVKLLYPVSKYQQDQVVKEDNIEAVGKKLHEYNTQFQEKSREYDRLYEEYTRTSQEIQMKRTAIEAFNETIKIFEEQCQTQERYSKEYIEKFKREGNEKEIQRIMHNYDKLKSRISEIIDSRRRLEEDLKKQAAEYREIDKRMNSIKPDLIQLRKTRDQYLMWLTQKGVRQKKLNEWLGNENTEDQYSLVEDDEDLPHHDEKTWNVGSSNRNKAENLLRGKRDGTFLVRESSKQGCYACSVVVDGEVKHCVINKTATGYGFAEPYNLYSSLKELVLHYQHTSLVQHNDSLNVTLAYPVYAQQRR
Protocol: as §1, §2, §3, §4, §5, §6, §7

[2] = target: T3, DNA-dependent protein kinase (DNA-PK) (Homo sapiens, UniProt P78527); experiment: kinobeads assay, DNA-PK; type: binding; details: Jurkat cell lysate, read-out: Inhibition values (IC50) DNA-PK
T3 construct: Jurkat cells were homogenized in a Potter S homogenizer in lysis buffer; endogenous in cells; host or cells: Jurkat, clone E6-1 (ATCC TIB-152) lysate
Protocol: as §1, §2, §3, §4, §5, §6, §7

PI3K alpha (PI3Kα) = target: T4, PI3K alpha (PI3Kα) (Homo sapiens, UniProt P42336); experiment: kinobeads assay, PI3K alpha; type: binding; details: Jurkat cell lysate, read-out: Inhibition values (IC50) PI3Ka
T4 construct: Jurkat cells were homogenized in a Potter S homogenizer in lysis buffer; endogenous in cells; host or cells: Jurkat, clone E6-1 (ATCC TIB-152) lysate
T4 sequence (P42336 whole entry): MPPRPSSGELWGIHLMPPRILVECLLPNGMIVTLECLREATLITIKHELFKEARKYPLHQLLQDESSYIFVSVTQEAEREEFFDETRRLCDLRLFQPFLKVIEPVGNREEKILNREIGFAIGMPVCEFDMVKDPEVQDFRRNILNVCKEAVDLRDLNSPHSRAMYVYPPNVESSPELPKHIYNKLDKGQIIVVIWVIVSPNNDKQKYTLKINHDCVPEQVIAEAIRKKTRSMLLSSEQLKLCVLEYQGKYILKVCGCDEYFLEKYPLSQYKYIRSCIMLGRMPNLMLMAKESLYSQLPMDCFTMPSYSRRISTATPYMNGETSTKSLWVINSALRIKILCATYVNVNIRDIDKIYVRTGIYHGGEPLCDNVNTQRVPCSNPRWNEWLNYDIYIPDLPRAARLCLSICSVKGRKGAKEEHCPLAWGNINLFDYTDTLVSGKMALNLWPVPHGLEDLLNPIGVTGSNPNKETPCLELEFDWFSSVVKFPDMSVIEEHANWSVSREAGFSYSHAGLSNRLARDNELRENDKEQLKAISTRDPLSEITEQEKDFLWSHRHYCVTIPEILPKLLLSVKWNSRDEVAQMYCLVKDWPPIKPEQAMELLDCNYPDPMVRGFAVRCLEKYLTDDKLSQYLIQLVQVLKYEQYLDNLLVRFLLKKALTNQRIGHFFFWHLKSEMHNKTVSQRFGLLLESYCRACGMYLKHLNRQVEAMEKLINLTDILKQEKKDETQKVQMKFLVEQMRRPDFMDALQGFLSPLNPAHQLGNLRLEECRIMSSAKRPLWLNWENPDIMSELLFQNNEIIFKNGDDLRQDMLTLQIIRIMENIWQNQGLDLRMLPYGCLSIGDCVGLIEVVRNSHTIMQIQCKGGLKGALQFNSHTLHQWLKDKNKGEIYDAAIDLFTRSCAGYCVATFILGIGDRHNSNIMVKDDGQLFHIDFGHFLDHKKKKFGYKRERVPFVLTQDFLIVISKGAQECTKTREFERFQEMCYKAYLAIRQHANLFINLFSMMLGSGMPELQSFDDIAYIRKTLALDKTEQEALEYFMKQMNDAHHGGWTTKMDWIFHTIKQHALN
T4 sequence (P27986 whole entry partner): as the sequence (P27986 whole entry partner) above
Protocol: as §1, §2, §3, §4, §5, §6, §7

PI3K delta (PI3Kd) = target: T5, PI3K delta (PI3Kd) (Homo sapiens, UniProt O00329); experiment: kinobeads assay, PI3K delta; type: binding; details: Jurkat cell lysate, read-out: Inhibition values (IC50) PI3Kd
T5 construct: Jurkat cells were homogenized in a Potter S homogenizer in lysis buffer; endogenous in cells; host or cells: Jurkat, clone E6-1 (ATCC TIB-152) lysate
T5 sequence (O00329 whole entry): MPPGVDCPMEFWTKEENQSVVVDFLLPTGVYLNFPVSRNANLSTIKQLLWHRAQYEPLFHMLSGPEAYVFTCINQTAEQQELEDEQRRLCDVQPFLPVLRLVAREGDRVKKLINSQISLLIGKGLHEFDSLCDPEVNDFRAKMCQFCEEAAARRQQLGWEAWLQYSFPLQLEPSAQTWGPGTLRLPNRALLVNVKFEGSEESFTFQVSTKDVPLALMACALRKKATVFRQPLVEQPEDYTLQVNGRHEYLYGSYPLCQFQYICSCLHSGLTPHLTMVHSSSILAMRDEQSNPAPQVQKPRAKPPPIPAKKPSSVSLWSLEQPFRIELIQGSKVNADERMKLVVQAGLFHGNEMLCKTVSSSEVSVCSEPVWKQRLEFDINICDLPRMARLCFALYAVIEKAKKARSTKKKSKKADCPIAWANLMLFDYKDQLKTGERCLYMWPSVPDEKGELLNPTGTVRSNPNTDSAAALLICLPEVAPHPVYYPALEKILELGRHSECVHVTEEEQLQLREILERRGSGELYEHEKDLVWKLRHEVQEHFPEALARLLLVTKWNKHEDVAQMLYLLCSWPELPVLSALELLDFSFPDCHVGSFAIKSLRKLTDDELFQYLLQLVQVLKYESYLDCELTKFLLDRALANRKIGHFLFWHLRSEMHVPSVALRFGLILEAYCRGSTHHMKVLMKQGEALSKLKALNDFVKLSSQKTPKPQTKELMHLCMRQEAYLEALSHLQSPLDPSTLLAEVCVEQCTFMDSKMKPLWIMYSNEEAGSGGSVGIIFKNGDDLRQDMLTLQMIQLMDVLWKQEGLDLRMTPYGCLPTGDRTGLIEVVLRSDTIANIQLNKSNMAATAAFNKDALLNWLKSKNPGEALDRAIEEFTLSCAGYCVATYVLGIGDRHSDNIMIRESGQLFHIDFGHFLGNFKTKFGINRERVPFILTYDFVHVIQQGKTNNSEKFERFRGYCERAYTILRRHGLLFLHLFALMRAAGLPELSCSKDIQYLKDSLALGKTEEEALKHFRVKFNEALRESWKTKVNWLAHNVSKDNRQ
T5 sequence (P27986 whole entry partner): as the sequence (P27986 whole entry partner) above
Protocol: as §1, §2, §3, §4, §5, §6, §7

mTOR = target: T6, mTOR (Homo sapiens, UniProt P42345); experiment: mTOR kinobeads assay (Jurkat cell lysate, dot blot detection); type: binding; details: read-out: Inhibition values (IC50) mTor
T6 construct: Jurkat cells were homogenized in a Potter S homogenizer in lysis buffer; endogenous in cells; host or cells: Jurkat, clone E6-1 (ATCC TIB-152) lysate
Protocol: as §1, §2, §3, §4, §5, §6, §7

SMILES	IC50 (PI3K gamma (PI3Kg))	IC50 [1]	IC50 (PI3K beta (PI3Kb))	IC50 [2]	IC50 (PI3K alpha (PI3Kα))	IC50 (PI3K delta (PI3Kd))	IC50 (mTOR)
CS(=O)(=O)c1ccccc1-c1nc(-c2ccc(NC(=O)NC3CC3)cc2)nc(N2CCOCC2)n1 [Example 12, 1-cyclopropyl-3-(4-(4-(2-(methylsulfonyl)phenyl)-6-morpholino-1,3,5-triazin-2-yl)phenyl)urea]	> 10 µM	0.1 to 1 µM	> 10 µM	> 10 µM	> 10 µM	> 10 µM	0.1 to 1 µM
C[C@H]1COCCN1c1nc(-c2ccc(NC(=O)NCC(O)C(F)(F)F)cc2)nc(-c2ccccc2S(C)(=O)=O)n1 (stereo partly drawn) [Example 33, 1-(4-(4-((S)-3-methylmorpholino)-6-(2-(methylsulfonyl)phenyl)-1,3,5-triazin-2-yl)phenyl)-3-(3,3,3-trifluoro-2-hydroxypropyl)urea]	> 10 µM	0.1 to 1 µM	> 10 µM	> 10 µM	> 10 µM	> 10 µM	0.1 to 1 µM
C[C@H]1COCCN1c1nc(-c2ccc(NC(=O)NC3CCCC3)cc2)nc(-c2ccccc2S(C)(=O)=O)n1 [Example 20, (S)-1-cyclopentyl-3-(4-(4-(3-methylmorpholino)-6-(2-(methylsulfonyl)phenyl)-1,3,5-triazin-2-yl)phenyl)urea]	> 10 µM	< 0.1 µM	1 to 10 µM	1 to 10 µM	1 to 10 µM	> 10 µM	0.1 to 1 µM
C[C@H]1COCCN1c1nc(-c2ccc(NC(=O)NC3CC3)cc2)nc(-c2ccccc2S(=O)(=O)N2CCCC2)n1 [Example 26, (S)-1-cyclopropyl-3-(4-(4-(3-methylmorpholino)-6-(2-(pyrrolidin-1-ylsulfonyl)phenyl)-1,3,5-triazin-2-yl)phenyl)urea]	> 10 µM	< 0.1 µM	> 10 µM	> 10 µM	> 10 µM	> 10 µM	0.1 to 1 µM
CS(=O)(=O)c1ccccc1-c1nc(-c2ccc(NC(=O)NC3CC3)cc2)nc(N2CC3CCC(C2)O3)n1 [Example 11, 1-(4-(4-(8-oxa-3-azabicyclo[3.2.1]octan-3-yl)-6-(2-(methylsulfonyl)phenyl)-1,3,5-triazin-2-yl)phenyl)-3-cyclopropylurea]	> 10 µM	< 0.1 µM	> 10 µM	> 10 µM	> 10 µM	> 10 µM	< 0.1 µM
C[C@H]1COCCN1c1nc(-c2ccc(NC(=O)Nc3cccnc3)cc2)nc(-c2ccccc2S(C)(=O)=O)n1 [Example 3, (S)-1-(4-(4-(3-methylmorpholino)-6-(2-(methylsulfonyl)phenyl)-1,3,5-triazin-2-yl)phenyl)-3-(pyridin-3-yl)urea]	> 10 µM	< 0.1 µM	> 10 µM	> 10 µM	> 10 µM	> 10 µM	0.1 to 1 µM
CC(C)CNC(=O)Nc1ccc(-c2nc(-c3ccccc3S(C)(=O)=O)nc(N3CCOC[C@@H]3C)n2)cc1 [Example 19, (S)-1-isobutyl-3-(4-(4-(3-methylmorpholino)-6-(2-(methylsulfonyl)phenyl)-1,3,5-triazin-2-yl)phenyl)urea]	> 10 µM	0.1 to 1 µM	> 10 µM	> 10 µM	> 10 µM	> 10 µM	1 to 10 µM
CCC1COCCN1c1nc(-c2ccc(NC(=O)NC3CC3)cc2)nc(-c2ccccc2S(C)(=O)=O)n1 (centres unmarked) [Example 36, 1-cyclopropyl-3-(4-(4-(3-ethylmorpholino)-6-(2-(methylsulfonyl)phenyl)-1,3,5-triazin-2-yl)phenyl)urea]	> 10 µM	< 0.1 µM	> 10 µM	> 10 µM	> 10 µM	> 10 µM	0.1 to 1 µM
